# Results taken from patent US10654867B2 (Genentech, Inc., priority 2016, dated 2020).
# Assays:
# [1] = target: T1, estrogen receptor alpha (ESR1) in MCF7 breast cancer cells (Homo sapiens, UniProt P03372); assay: Breast Cancer Cell ERa High Content Fluorescence Imaging Degradation Assay (ER-alpha MCF7 HCS); type: cell-based; design: MCF7 breast cancer cells were seeded on day 1 at a density of 10,000 cells per well; endogenous in cells; host or cells: MCF7 breast cancer cells; conditions: 4 hours, plateau of the maximal effect, DMSO and fulvestrant define 0% and 100% change in ESR1, Table 1b
# T1 sequence (P03372 1-595): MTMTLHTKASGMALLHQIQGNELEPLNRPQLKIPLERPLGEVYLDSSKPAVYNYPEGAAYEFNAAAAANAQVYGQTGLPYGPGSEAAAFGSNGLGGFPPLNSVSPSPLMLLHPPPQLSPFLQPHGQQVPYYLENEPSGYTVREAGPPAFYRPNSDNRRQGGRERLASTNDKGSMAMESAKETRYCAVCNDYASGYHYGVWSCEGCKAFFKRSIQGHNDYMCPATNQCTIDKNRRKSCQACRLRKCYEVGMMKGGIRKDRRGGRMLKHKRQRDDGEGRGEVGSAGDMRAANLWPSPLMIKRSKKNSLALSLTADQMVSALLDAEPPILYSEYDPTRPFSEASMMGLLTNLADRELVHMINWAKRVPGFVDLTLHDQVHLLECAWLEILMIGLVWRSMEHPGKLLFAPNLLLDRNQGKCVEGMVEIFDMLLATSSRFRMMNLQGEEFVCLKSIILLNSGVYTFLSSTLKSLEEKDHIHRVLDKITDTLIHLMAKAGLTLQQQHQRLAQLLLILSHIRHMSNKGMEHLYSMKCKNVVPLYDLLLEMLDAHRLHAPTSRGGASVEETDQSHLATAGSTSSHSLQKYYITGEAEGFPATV
# Experimental: All of the exemplary Formula I, II, and III compounds in Tables 1a and 1b were made and characterized by LCMS [M+H]^+ (liquid chromatography mass spectroscopy) with detection of parent ion. All of the exemplary Formula I, II, and III compounds in Tables 1a and 1b were tested for binding to ERa (Estrogen Receptor alpha) and biological activity according to the assays, protocols, and procedures of Examples 901-907. ER-alpha MCF7 HCS Sinf (%) values in Tables 1a and 1b were measured by the Breast Cancer Cell ERa High Content Fluorescence Imaging Degradation Assay of Example 901. ER-alpha MCF7 HCS EC50 (μM) values in Tables 1a and 1b were measured by the in vitro cell proliferation assays described in Examples 902 and 903. The rat uterine wet weight assays of Examples 906 and 907 allow rapid determination of compound antagonist activity in an ER responsive tissue (immature rat uterus) while competing against the native ER ligand estradiol, i.e. antagonist mode (Ashby, J.; et al (1997) Regulatory toxicology and pharmacology: RTP, 25 (3):226-31). […]
# MCF7 breast cancer cells were seeded on day 1 at a density of 10,000 cells per well in 384 well poly-lysine coated tissue culture plate (Greiner # T-3101-4), in 50 μL/well RPMI (phenol red free), 10% FBS (Charcoal stripped), containing L-glutamine. […] Quantitative fluorescence imaging of ESR1 was carried out using a Cellomics Arrayscan V (Thermo). […]
# [2] = target: T1, estrogen receptor alpha (ESR1) in MCF7 breast cancer cells; assay: as above; type: cell-based; design: endogenous in cells; host or cells: MCF7 breast cancer cells; key to ERalpha (WT) MCF7HCS (Sinf): % change in ERα level; DMSO = 0%, fulvestrant = 100% change; conditions: 4 hours, plateau of the maximal effect; for ER-alpha MCF7HCS Sinf: DMSO and fulvestrant define 0% and 100% change in ESR1, Table 1a
# Method in brief: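 MCF7 cells in phenol red-free RPMI with 10% charcoal-stripped FBS were exposed 4 h at 37 °C to 10-point 1.8× dilutions (0.05–835 nM final, 0.84% DMSO); fulvestrant served as control. After fixation, ESR1 was immunostained (F10 mAb, Alexa488) with Hoechst nuclear masking, and nuclear ESR1 fluorescence was quantified by imaging.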
compound,measurement,setting,value
C[C@@H]1Cc2oc3ccccc3c2[C@@H](c2c(F)cc(OCCN3CC(CF)C3)cc2F)N1CC(F)(F)CO [Example 170],ERalpha (WT) MCF7HCS (Sinf),[1],−93
"C[C@@H]1Cn2c(cc3ccccc32)[C@@H](c2c(F)cc([C@@H](O)C3CN(CCCF)C3)cc2F)N1CC(F)(F)CO (single isomer, unassigned) [Example 163]",ERalpha (WT) MCF7HCS (Sinf),"[2]; DMSO and fulvestrant define 0% and 100% change in ESR1, Table 1b",−100
"C[C@@H]1Cn2c(cc3ccccc32)[C@@H](c2c(F)cc(OC3CN(CCCF)C3)cc2F)N1CC(C)(F)CO (stereo partly drawn) [Example 122, 3-((1R,3R)-1-(2,6-Difluoro-4-((1-(3-fluoropropyl)azetidin-3-yl)oxy)phenyl)-3-methyl-3,4-dihydropyrazino[1,2-a]indol-2(1H)-yl)-2-fluoro-2-methylpropan-1-ol]",ER-alpha MCF7HCS Sinf,[2],−97%
C[C@@H]1Cc2c([nH]c3ccccc23)[C@]2(Cc3ccc(OC4CN(CCCF)C4)cc3C2)N1CC(F)(F)F [Example 140],ER-alpha MCF7HCS Sinf,[2],−15%
"C[C@@](F)(CO)CN1CCCc2c([nH]c3ccccc23)[C@H]1c1c(F)cc(OCCN2CC(CF)C2)cc1F [Example 117, (S)-3-((R)-1-(2,6-difluoro-4-(2-(3-(fluoromethyl)azetidin-1-yl)ethoxy)phenyl)-3,4,5,10-tetrahydroazepino[3,4-b]indol-2(1H)-yl)-2-fluoro-2-methylpropan-1-ol]",ER-alpha MCF7HCS Sinf,[2],−93.8%
